Assay results reported in the supplement of paper PMC13380429.

Experiments:
Conditions in all cases: 72 h
Caco-2 [1] = assay: cell viability relative to DMSO; higher = less toxic
Calu-3 [2] = assay: as above
HepG2 [3] = assay: as above
U2OS [4] = assay: as above
Vero E6 [5] = assay: as above
Caco-2 [6] = assay: relative viability EC50 (midpoint between 100% and the lowest measured viability); higher = less toxic
Calu-3 [7] = assay: as above
HepG2 [8] = assay: as above
U2OS [9] = assay: as above
Vero E6 [10] = assay: as above
Caco-2 [11] = assay: drug sensitivity score (DSS) for viability; higher = more toxic; extreme values may be limits of the assay
Calu-3 [12] = assay: as above
HepG2 [13] = assay: as above
U2OS [14] = assay: as above
Vero E6 [15] = assay: as above

SMILES	cell viability (Caco-2 [1]; 1 nM)	cell viability (Caco-2 [1]; 10 nM)	cell viability (Caco-2 [1]; 100 nM)	cell viability (Caco-2 [1]; 1000 nM)	cell viability (Caco-2 [1]; 10000 nM)	cell viability (Calu-3 [2]; 1 nM)	cell viability (Calu-3 [2]; 10 nM)	cell viability (Calu-3 [2]; 100 nM)	cell viability (Calu-3 [2]; 1000 nM)	cell viability (Calu-3 [2]; 10000 nM)	cell viability (HepG2 [3]; 1 nM)	cell viability (HepG2 [3]; 10 nM)	cell viability (HepG2 [3]; 100 nM)	cell viability (HepG2 [3]; 1000 nM)	cell viability (HepG2 [3]; 10000 nM)	cell viability (U2OS [4]; 1 nM)	cell viability (U2OS [4]; 10 nM)	cell viability (U2OS [4]; 100 nM)	cell viability (U2OS [4]; 1000 nM)	cell viability (U2OS [4]; 10000 nM)	cell viability (Vero E6 [5]; 1 nM)	cell viability (Vero E6 [5]; 10 nM)	cell viability (Vero E6 [5]; 100 nM)	cell viability (Vero E6 [5]; 1000 nM)	cell viability (Vero E6 [5]; 10000 nM)	relative viability EC50 (Caco-2 [6])	relative viability EC50 (Calu-3 [7])	relative viability EC50 (HepG2 [8])	relative viability EC50 (U2OS [9])	relative viability EC50 (Vero E6 [10])	drug sensitivity score (Caco-2 [11])	drug sensitivity score (Calu-3 [12])	drug sensitivity score (HepG2 [13])	drug sensitivity score (U2OS [14])	drug sensitivity score (Vero E6 [15])
Clc1ccc(Nc2nnc(Cc3ccncc3)c3ccccc23)cc1 [vatalanib]	98.6%	99.3%	102%	94.7%	84.5%	95.9%	89.8%	97.5%	102%	90.3%	101%	92.4%	107%	102%	83%	103%	100%	100%	101%	92.7%	95.9%	93.8%	89%	88.8%	90%	> 10 µM	> 10 µM	> 10 µM	> 10 µM	> 10 µM	0.7	0	0.3	0	0.4
CN(C)Cc1ccc(-c2nc3cccc4c3n2CCNC4=O)cc1	92.8%	117%	104%	100%	98.2%	85.7%	90.3%	80.8%	73.7%	99.7%	109%	93.3%	97.5%	95.9%	77.1%	93.6%	98%	94.6%	100%	99.8%	104%	95.9%	103%	96%	101%	> 10 µM	> 10 µM	> 10 µM	> 10 µM	> 10 µM	0	0	1.4	0	0
Cc1c(N(C)C)c(=O)n(-c2ccccc2)n1C [amidopyrine]	102%	106%	97.9%	110%	84%	105%	109%	99.5%	112%	103%	94.7%	92.2%	112%	106%	99.7%	95.1%	101%	93.2%	99.2%	96.4%	97.8%	96.4%	104%	97.7%	89.2%	> 10 µM	> 10 µM	> 10 µM	> 10 µM	> 10 µM	0.1	0	0	0	0
Clc1cccc(Cl)c1CSc1nnc(-c2cnccn2)s1 [yoda-1]	100%	95.3%	94.7%	92.6%	79.6%	98.8%	91.1%	97%	98.8%	91%	84.7%	100%	97.6%	102%	91%	101%	98.9%	90.6%	92%	93%	97.4%	100%	94.2%	96%	94%	> 10 µM	> 10 µM	> 10 µM	> 10 µM	> 10 µM	0.9	0	0	0	0
CC(=O)O[C@]1(C(C)=O)CC[C@H]2[C@@H]3C[C@H](C)C4=CC(=O)CC[C@]4(C)[C@H]3CC[C@@]21C [medroxyprogesterone-acetate]	92.6%	103%	94.5%	101%	95.8%	99.8%	106%	95.6%	101%	103%	110%	103%	99.1%	95.1%	97.3%	97.1%	99%	97%	96.2%	96.5%	96.6%	97.9%	100%	98.3%	98.2%	> 10 µM	> 10 µM	> 10 µM	> 10 µM	> 10 µM	0	0	0	0	0
Oc1cc(O)c2c(c1)O[C@H](c1ccc(O)c(O)c1)[C@@H](O)C2 [cianidanol]	89.8%	89.6%	92.6%	90.4%	92.6%	96.9%	101%	97.4%	107%	101%	100%	99.8%	84.6%	102%	109%	93.9%	96.2%	95.6%	98.5%	100%	98%	88.5%	103%	94.5%	113%	> 10 µM	> 10 µM	> 10 µM	> 10 µM	> 10 µM	0	0	0	0	0
CCCCc1ccc(C(N)=O)nc1 [bupicomide]	94.6%	81.3%	94%	90.8%	88%	97.9%	84.9%	103%	84.7%	99.3%	93.8%	103%	92.6%	116%	114%	99.9%	94.5%	103%	93.6%	102%	96.6%	99.9%	96%	100%	107%	> 10 µM	> 10 µM	> 10 µM	> 10 µM	> 10 µM	0	0	0	0	0
CCOc1nc2cccc(C(=O)O)c2n1Cc1ccc(-c2ccccc2-c2nnn[nH]2)cc1 [candesartan]	104%	97.5%	106%	90.1%	92.5%	91.1%	95.7%	100%	99.7%	105%	103%	100%	106%	98%	94.5%	94.2%	96.8%	94.4%	99.3%	102%	102%	97.6%	95.3%	92.7%	108%	> 10 µM	> 10 µM	> 10 µM	> 10 µM	> 10 µM	0	0	0	0	0
COc1nc(C)cnc1NS(=O)(=O)c1cccnc1-c1ccc(-c2nnco2)cc1 [zibotentan]	104%	95.2%	94.9%	101%	94.9%	105%	102%	98.9%	104%	111%	99.8%	98%	102%	101%	107%	95.7%	99.4%	97.7%	103%	105%	102%	96.5%	94.4%	99.3%	102%	> 10 µM	> 10 µM	> 10 µM	> 10 µM	> 10 µM	0	0	0	0	0
c1ccc(C(O[C@@H]2CCCN(CCc3ccc4c(c3)OCO4)C2)c2ccccc2)cc1 [zamifenacin]	94.8%	91.7%	98.6%	98.3%	92.5%	104%	99.2%	97%	102%	92.2%	92.6%	107%	92.7%	108%	92.1%	104%	99.6%	98.8%	98.3%	96%	96.9%	102%	96.7%	98.3%	94.9%	> 10 µM	> 10 µM	> 10 µM	> 10 µM	> 10 µM	0	0	0	0	0
CCOC(=O)[C@@]1(CCCCCCOc2ccc(Cl)cc2)CO1 [etomoxir]	92.6%	97.6%	98.2%	98%	85.6%	106%	114%	98.2%	117%	110%	115%	106%	101%	108%	91.7%	105%	102%	104%	103%	97.7%	113%	106%	110%	104%	98.1%	> 10 µM	> 10 µM	> 10 µM	> 10 µM	> 10 µM	0.4	0	0	0	0
CNc1nc(C)nc(N[C@H]2CCC[C@@H](C(=O)NCc3ccc(C#N)cc3C(F)(F)F)C2)n1	87.8%	102%	91.8%	98.6%	95.1%	93.9%	98.1%	97%	93.2%	89.4%	99.4%	98.7%	103%	94.7%	111%	97%	100%	97.9%	107%	99.9%	99.3%	96.8%	100%	96.8%	108%	> 10 µM	> 10 µM	> 10 µM	> 10 µM	> 10 µM	0	0	0	0	0
N=C(N)SCc1ccc(B(O)O)cc1 [BC-11]	102%	101%	96.1%	108%	92.4%	92.3%	101%	105%	107%	99.6%	107%	99.7%	99.8%	88.6%	92.8%	102%	102%	98.8%	97.1%	97.1%	108%	96.6%	97.9%	101%	99.8%	> 10 µM	> 10 µM	> 10 µM	> 10 µM	> 10 µM	0	0	0.4	0	0
